Among the data in PubChem BioAssay (NCI) are GI50 and TGI values, retold here.

Where “and” joins values, the source holds several entries; their conditions need not be identical. Identical values can stand only once.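 Growth conditions: 96-well plates. Treatment: test compound, 48 hours, 5 concentrations. Analysis: linear interpolation between bracketing concentrations; unreached endpoints set to highest concentration. GI50 is the concentration that inhibits growth by half. Definition used: TGI = concentration required for complete inhibition of growth.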

Assay in all cases: DTP human tumour cell line panel, 48 h
In test [1] the test system is A549 NSCLC.
In test [2] the test system is HCT-15 colon.
Test [3] concerns IGROV1 ovarian.
In test [4] the test system is LOX IMVI melanoma.
In test [5] the test system is NCI-H23 lung.
Test [6] relates to OVCAR-5 ovarian.
The subject of test [7] is PC-3 prostate.
Test [8] concerns U251 CNS.
Test [9] deals with UO-31 renal.
The subject of test [10] is MOLT-4 leukemia.

By GI50 is commonly meant the concentration at which growth is held to half of that of the control. The TGI is the concentration at which net growth stops. Higher therefore signals less potent growth arrest.

Consider `COc1ccc(Cn2c(N)c(S(=O)(=O)c3ccc(Cl)cc3)c3nc(C#N)c(C#N)nc32)cc1`, for which the GI50 in test [1] was 18.2 µM; in [2], greater than 50 µM; in test [3], 21.6 µM; in [4] it was 8.27 µM; in [5], 17 µM; in test [6] it was 12.2 µM. Besides, the GI50 in test [7] was 33.5 µM; in [8] it was 10.1 µM; in test [9] it was 32.6 µM. Besides, the concentration for total growth inhibition (TGI) in test [1] was greater than 50 µM; in [2], greater than 50 µM; in test [3] it was greater than 50 µM; in test [4] it was 38.3 µM; in test [5], greater than 50 µM; in test [6] it was greater than 50 µM. Also, the concentration for total growth inhibition (TGI) was greater than 50 µM in test [7], 30.3 µM in [8] and greater than 50 µM in [9].

For the compound `CC1(C)N=C(N)N=C(N)N1c1ccc(CCCCc2ccc(Cl)c(S(=O)(=O)F)c2)c(Cl)c1`, the GI50 in [1] is 0.319 µM; in test [2] it was 0.597 µM; in test [3], 0.117 µM; in [4] it was 0.13 µM; in [10], 0.622 µM; in test [5], 0.843 µM. Moreover, the GI50 is 13.9 µM in [6], 0.214 µM in [7], 0.437 µM in test [8] and 8.2 µM in [9]. The total growth inhibition concentration (TGI) in test [1] is 3.98 µM; in [2] it was greater than 100 µM; in test [3], 20.7 µM; in [4] it was 17.5 µM; in [10] it was 14.8 µM; in test [5], 19 µM. The TGI in test [6] amounted to 27.1 µM; in [7], 15.1 µM; in [8], 19.6 µM; in test [9] it was 28.5 µM.

Take `COC(=O)c1cc2c(s1)-c1nccc3c1c(nc1ccccc13)C2=O`: the GI50 was greater than 100 µM in test [1]; greater than 100 µM in [2]; 28.8 µM in test [3]; 29 µM in [4]; greater than 100 µM in test [10]; greater than 100 µM in test [5]. The GI50 in test [6] was greater than 100 µM; in test [7], greater than 100 µM; in [8], 50.6 µM; in test [9], greater than 100 µM. For the same compound, the total growth inhibition concentration (TGI) in test [1], in test [2], in test [3], in test [4], in test [10] and in test [5] was greater than 100 µM throughout. The TGI in test [6], in test [7], in [8] and in test [9] was greater than 100 µM each time.

Take `COc1cc2c3c(c1OC)-c1cc4c(cc1CC3(C#N)N(C(=O)c1ccccc1)CC2)OCO4` (configuration not stated): the total growth inhibition concentration (TGI) was greater than 100 µM in [1]; greater than 100 µM in test [2]; greater than 82.3 µM in test [3]; greater than 93.6 µM in [4]; greater than 100 µM in test [10]; 54.1 µM in test [5]. For the same compound, the TGI in test [6] was greater than 56.2 µM; in [7], greater than 100 µM; in test [8], 53.5 µM; in [9] it was greater than 94.1 µM.

Take `COC12C(COC(N)=O)C3=C(C(=O)C(C)=C(N)C3=O)N1CC1C2N1C` (configuration not stated): the total growth inhibition concentration (TGI) in test [1] came to 24.2 µM; in [2], 55.1 µM; in [3], 28.6 µM; in test [4], 20.2 µM; in test [10] it was 18.6 µM; in [5], 17.6 µM. Also, the TGI in test [6] is 63.1 µM; in test [7], 61.6 µM; in test [8], 22.6 µM; in test [9] it was 32.6 µM.

For `O=C(CNS(=O)(=O)Cc1ccccc1)NNc1ccccc1`, the TGI in [1], in test [2], in test [3], in [4], in test [10] and in [5] was greater than 100 µM each time. For the same compound, the concentration for total growth inhibition (TGI) in test [6], in [7], in test [8] and in test [9] was greater than 100 µM each time.

In the case of `C[C@@]12CCC[C@@](C)(C(=O)O)C1CC[C@]13CC(=O)[C@](CO)(C1)[C@@H](O)CC32` (some centres not stated), the GI50 in test [1], in test [2], in test [3], in [4], in test [10] and in [5] was greater than 100 µM throughout. The GI50 in [6], in test [7], in test [8] and in [9] was greater than 100 µM in each case. The concentration for total growth inhibition (TGI) in test [1], in test [2], in [3], in test [4], in [10] and in test [5] was greater than 100 µM throughout. Further, the total growth inhibition concentration (TGI) in test [6], in [7], in [8] and in test [9] was greater than 100 µM each time.

`COc1ccc(C2=C(c3ccc(OC)cc3)C(=O)N3CCCC3C2)cc1` (configuration not stated): the GI50 in [1] is 9.42 µM; in test [2], 0.733 µM; in [3], 18.1 µM; in test [4], 3.87 µM; in test [10] it was 15.5 µM; in [5], 41.9 µM. Further, the GI50 in test [6] is greater than 83.7 µM; in [7], 12.4 µM; in test [8] it was 5.99 µM; in test [9], 19.7 µM. Also, the TGI in [1] was greater than 100 µM; in [2] it was greater than 55.7 µM; in test [3] it was greater than 100 µM; in test [4] it was 25.6 µM; in test [10] it was greater than 100 µM; in [5], greater than 100 µM. The TGI in test [6], in [7], in [8] and in [9] was greater than 100 µM each time.

`CCc1ccc(/C=C/c2ccc(O)c3ncccc23)[n+](C)c1`: the concentration for 50% growth inhibition (GI50) in test [1] is 0.0377 µM; in test [2] it was 40.9 µM; in test [3] it was 11.4 µM; in test [4] it was 35.8 µM; in test [10], 3.72 µM; in [5], 4.2 µM. Moreover, the GI50 in test [6] is greater than 100 µM; in test [7] it was 6.09 µM; in test [8], 0.661 µM; in test [9] it was 7.4 µM. The TGI in test [1], in [2], in [3], in test [4], in test [10] and in [5] was greater than 100 µM in each case. In addition, the concentration for total growth inhibition (TGI) in test [6], in test [7], in test [8] and in test [9] was greater than 100 µM throughout.

As to `CN(C)c1ncnc2c1ncn2CCn1cnc2c(N(C)C)ncnc21`, the total growth inhibition concentration (TGI) in test [1], in test [2], in test [3], in test [4], in test [5] and in test [6] was greater than 100 µM in each case. Also, the TGI in test [7], in [8] and in test [9] was greater than 100 µM each time.

For `O=C(Nc1ccc(Cl)c(C(F)(F)F)c1)c1ccc(NC2=C(Cl)C(=O)N(Cc3ccccc3)C2=O)cc1`, the GI50 in test [1] was 17 µM; in test [3] it was 1.59 µM; in test [4], 1.24 µM; in test [10], 2.89 µM; in test [7] it was 3.39 µM; in [8], 2.15 µM. Also, the TGI is 34.8 µM in [1]; 3.92 µM in test [3]; 2.63 µM in test [4]; greater than 100 µM in test [10]; 11.8 µM in [7]; 5.23 µM in test [8].

With `CN(C)CCSc1cc(-c2ccccc2)c2ccccc2n1`, the TGI in test [1] amounted to 28.5 µM; in test [2] it was 14.6 µM; in [3] it was 25.5 µM; in test [4], 26.6 µM; in [5] it was 23.1 µM; in test [6] it was 26.2 µM. In addition, the TGI in test [7] came out at 24.6 µM; in test [8], 22.5 µM; in test [9], 23 µM.

For `CC1(Br)Cc2ccccc2C1=O` (configuration not stated), the TGI in [1] is 32.4 µM; in test [3], 15 µM; in test [4], 2.41 µM; in [10] it was 9.91 µM and 3.4 µM; in test [5], 5.38 µM; in test [6], 14.2 µM. In addition, the TGI in test [7] is 22.5 µM; in test [8], 18.7 µM; in test [9], 20.2 µM. In addition, the GI50 is 0.533 µM in test [4], 0.423 µM in test [10] and 1.88 µM in [5].

With `O=C(/C=C/C=C/c1ccccc1)c1ccccc1`, the total growth inhibition concentration (TGI) stood at 42.7 µM in test [1]; 28.8 µM in test [2]; 31.2 µM in test [3]; 29.3 µM in test [4]; 49.4 µM in test [10]; 28.8 µM in test [6]. The TGI in [7] was found to be 37.2 µM; in test [8], 27 µM; in test [9] it was 38.2 µM.

As for `O=[N+]([O-])c1cccc2ccc(N/N=C/c3ccccc3O)nc12`, the GI50 in [1] is greater than 100 µM; in [2], greater than 100 µM; in test [4], greater than 100 µM; in test [10], 0.313 µM; in test [5] it was greater than 100 µM; in test [6], greater than 100 µM. In addition, the GI50 in test [7] was 4.67 µM; in test [8], greater than 59.7 µM; in [9] it was greater than 39.9 µM. In addition, the TGI was greater than 100 µM in test [1]; greater than 100 µM in test [2]; greater than 100 µM in [4]; 1.16 µM in [10]; greater than 100 µM in test [5]; greater than 100 µM in [6]. The TGI in test [7], in test [8] and in test [9] was greater than 100 µM in each case.

Consider `Nc1ccn(C2OC(CO)C(O)C2O)c(=O)n1` (configuration not stated), for which the 50% growth inhibitory concentration (GI50) in [1] is 0.422 µM; in test [3], 37.9 µM; in [4], 0.829 µM; in test [10], 0.0103 µM and 0.0148 µM; in test [7], greater than 46.3 µM; in test [8], 0.635 µM. Moreover, the GI50 in test [9] was 0.715 µM. Besides, the TGI in test [2] was greater than 500 µM; in test [3] it was greater than 500 µM; in [6] it was > 100 µM and 392 µM and > 500 µM; in [7], greater than 500 µM; in test [8], greater than 500 µM.

As for `Cc1cc(N(CCCNc2ccnc3cc(Cl)ccc23)Cc2ccc3c(c2)OCO3)nc(N2CCOCC2)n1`, the GI50 was 0.311 µM in test [2]; 0.338 µM in test [3]; 0.216 µM in [4]; 0.283 µM in test [10]; 0.29 µM in [6]; 0.352 µM in test [7]. Also, the concentration for 50% growth inhibition (GI50) in test [8] was 0.323 µM. Further, the TGI was determined as 11.7 µM in [2]; 3.47 µM in test [3]; 0.534 µM in test [4]; 0.953 µM in test [10]; 22.3 µM in test [6]; 29.2 µM in [7]. This compound displayed a TGI in [8] of 3.18 µM.

`CSc1ccccc1C#C/C=C\C#Cc1ccccc1N`: the GI50 in test [1] was 7.58 µM; in test [2], 6.65 µM; in test [4] it was 9.52 µM; in test [10], 8.04 µM; in [5], 13.1 µM; in test [6], 19.4 µM. Besides, the GI50 in [7] was 14.5 µM; in [8], 10.3 µM; in [9], 17 µM. In addition, the concentration for total growth inhibition (TGI) in test [1] is 89.6 µM; in test [2], 32.5 µM; in test [4] it was 25.2 µM; in [10], greater than 100 µM; in test [5], 37.3 µM; in test [6], 50 µM. Further, the TGI in [7] was greater than 100 µM; in [8], 55.3 µM; in test [9], greater than 100 µM.

In the case of `O=C(Nc1cc(C(F)(F)F)ccc1Cl)c1cccc(NC2=C(Cl)C(=O)N(Cc3ccccc3)C2=O)c1`, the GI50 in test [1] was 72.8 µM; in [2], 23.5 µM; in test [3], 2.81 µM; in test [4], 5.65 µM; in [10], 2.19 µM; in [7], 14.1 µM. Also, the GI50 is 11.1 µM in test [8] and 0.7 µM in test [9]. For the same compound, the total growth inhibition concentration (TGI) in test [1], in test [2], in test [3], in [4], in test [10] and in test [7] was greater than 100 µM each time. Further, the TGI was greater than 100 µM in test [8] and 58.2 µM in test [9].
